Assay results reported in patent US9375005B2, “5-halogenopyrazole indanyl carboxamides” (BAYER CROPSCIENCE AG, priority 2012, dated 2016).

Columns and labels:
[1] = tested on: Uromyces appendiculatus; test: In vivo preventive test on Uromyces appendiculatus (bean rust); settings: bean plants sprayed 24 h before contamination, grading 11 days after contamination
Method in brief: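 Saxa bean plants grown at 24° C were sprayed at the 2-leaf stage (9 cm) with compound in acetone/tween/DMSO/water; controls got solvent mix only. Leaves inoculated 24 h later with U. appendiculatus spores (150 000 spores/ml). Efficacy (%) graded 11 days post-inoculation versus controls.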

[2] = tested on: Puccinia recondita; test: In vivo preventive test on Puccinia recondita (brown rust on wheat); settings: wheat plants sprayed 24 h before contamination, grading 12 days after contamination
Protocol: Plants, used as controls, are treated with the mixture of acetone/tween/DMSO/water not containing the active material. After 24 hours, the plants are contaminated by spraying the leaves with an aqueous suspension of Puccinia recondita spores (100 000 spores per ml). […] Grading (% of efficacy) is carried out 12 days after the contamination, in comparison with the control plants.

[3] = tested on: Alternaria brassicae; test: In vivo preventive test on Alternaria brassicae (leaf spot on radish); settings: radish plants sprayed 24 h before contamination, grading 6 days after contamination vs control plants
Protocol: Radish plants (“Pernod Clair” variety), sown in starter cups on a 50/50 peat soil-pozzolana substrate and grown at 17° C., are treated at the cotyledon stage by spraying with the active ingredient prepared as described above. Plants, used as controls, are treated with the mixture of acetone/tween/DMSO/water not containing the active material. After 24 hours, the plants are contaminated by spraying the cotyledons with an aqueous suspension of Alternaria brassicae spores (50 000 spores per ml). The spores are collected from a 15-day-old culture. […] Grading (% of efficacy) is carried out 6 days after the contamination, in comparison with the control plants.

[4] = tested on: Septoria tritici; test: In vivo preventive test on Septoria tritici (leaf spot on wheat); settings: dose 500 ppm; wheat plants sprayed 24 h before contamination; grading 24 days after contamination
Protocol: Wheat plants (“Scipion” variety), sown in starter cups on a 50/50 peat soil-pozzolana substrate and grown at 22° C., are treated at the 1-leaf stage (10 cm height) by spraying with the active ingredient prepared as described above. Plants, used as controls, are treated with the mixture of acetone/tween/DMSO/water not containing the active material. After 24 hours, the plants are contaminated by spraying the leaves with an aqueous suspension of cryopreserved Septoria tritici spores (500 000 spores per ml). […] Grading (% of efficacy) is carried out 24 days after the contamination, in comparison with the control plants.

[5] = Measurement of log P values by HPLC on reversed phase columns (EEC directive 79/831 Annex V.A8); type: physicochemical
[6] = tested on: Botrytis cinerea; test: In vivo preventive test on Botrytis cinerea (grey mould); settings: gherkin plants sprayed 24 h before contamination, grading 4 to 5 days after contamination
Protocol: Gherkin plants (“Vert petit de Paris” variety), sown in starter cups on a 50/50 peat soil-pozzolana substrate and grown at 24° C., are treated at the Z11 cotyledon stage by spraying with the active ingredient prepared as described above. Plants, used as controls, are treated with the mixture of acetone/tween/DMSO/water not containing the active material. After 24 hours, the plants are contaminated by spraying the cotyledons with an aqueous suspension of cryopreserved Botrytis cinerea spores (50 000 spores per ml). The spores are suspended in a nutrient solution composed of 10 g/L of PDB, 50 g/L of D-Fructose, 2 g/L of NH4NO3 and 1 g/L of KH2PO4. […] Grading (% of efficacy) is carried out 4 to 5 days after the contamination, in comparison with the control plants.

[7] = tested on: Sphaerotheca fuliginea; test: In vivo preventive test on Sphaerotheca fuliginea (powdery mildew on cucurbits); settings: dose 500 ppm; gherkin plants sprayed 24 h before contamination; grading 12 days after contamination
Protocol: Gherkin plants (“Vert petit de Paris” variety), sown in starter cups on a 50/50 peat soil-pozzolana substrate and grown at 24° C., are treated at the Z11 cotyledon stage by spraying with the active ingredient prepared as described above. Plants, used as controls, are treated with the mixture of acetone/tween/DMSO/water not containing the active material. After 24 hours, the plants are contaminated by spraying the cotyledons with an aqueous suspension of Sphaerotheca fuliginea spores (100 000 spores per ml). The spores are collected from infected plants. The contaminated to gherkin plants are incubated at about 20° C. and at 70-80% relative humidity. Grading (% of efficacy) is carried out 12 days after the contamination, in comparison with the control plants.

[8] = tested on: Pyrenophora teres; test: In vivo preventive test on Pyrenophora teres (net blotch on barley); settings: barley plants sprayed 24 h before contamination, grading 14 days after contamination
Protocol: Barley plants (“Plaisant” variety), sown in starter cups on a 50/50 peat soil-pozzolana substrate and grown at 22° C., are treated at the 1-leaf stage (10 cm height) by spraying with the active ingredient prepared as described above. Plants, used as controls, are treated with the mixture of acetone/tween/DMSO/water not containing the active material. After 24 hours, the plants are contaminated by spraying the leaves with an aqueous suspension of Pyrenophora teres spores (12 000 spores per ml). The spores are collected from a 12-day-old culture. […] Grading (% of efficacy) is carried out 14 days after the contamination, in comparison with the control plants.

Row | SMILES | Eff. % ([1]; dose 500 ppm) | Eff. % ([2]; dose 500 ppm) | Eff. % ([3]; dose 500 ppm) | Eff. % [4] | logP ([5]; method marked [a]) | Eff. % ([1]; dose 100 ppm) | Eff. % ([2]; dose 100 ppm) | Eff. % ([3]; dose 100 ppm) | Eff. % ([6]; dose 100 ppm) | Eff. % [7] | Eff. % ([8]; dose 500 ppm) | Eff. % ([6]; dose 500 ppm) | chromatographic logP ([5]; pH 2.7) | logP ([5]; method marked [b]) | Eff. % ([8]; dose 100 ppm)
1 | CC1CC(C(C)C)c2cccc(NC(=O)c3c(C(F)F)nn(C)c3Cl)c21 (centres unmarked) [Example 35] | 100% | 97% | 79% | 80% | 4.46[a] |  |  |  |  |  |  |  |  |  | 
2 | CC1CC2(CCCCC2)c2cccc(NC(=O)c3c(C(F)F)nn(C)c3F)c21 (centres unmarked) [Example 107] |  |  |  |  | 4.73[a] | 100% | 100% | 97% | 100% |  |  |  |  |  | 
3 | Cn1nc(C(F)F)c(C(=S)Nc2cccc3c2CCC3C(C)(C)C)c1F (centres unmarked) [Example 75] | 100% | 100% |  | 79% | 4.51[a] |  |  |  |  | 100% |  |  |  |  | 
4 | Cn1nc(C(F)F)c(C(=O)Nc2cccc3c2CC(C)(C)C3)c1F [Example 72] | 100% | 98% |  | 71% | 3.64[a] |  |  |  |  | 100% |  |  |  |  | 
5 | CC1CC2(CC2)c2cccc(NC(=S)c3c(C(F)F)nn(C)c3F)c21 (centres unmarked) [Example 60] | 100% |  |  | 93% | 3.71[a] |  |  |  |  | 100% | 100% | 100% |  |  | 
6 | CC(C)C1Cc2c(NC(=O)c3c(C(F)F)nn(C)c3F)cccc2C1(C)C (centres unmarked) [Example 5] | 100% | 100% | 100% | 93% | 4.69[a] |  |  |  |  | 100% |  |  |  |  | 
7 | CCC1Cc2c(NC(=O)c3c(C(F)F)nn(C)c3F)cccc2C1(C)C (centres unmarked) [Example 86] | 100% | 100% | 96% | 93% | 4.34[a] |  |  |  |  |  | 92% |  |  |  | 
8 | CC1CC(C(C)C)c2cccc(NC(=O)c3c(C(F)F)nn(C)c3F)c21 (centres unmarked) [Example 34] | 100% | 97% | 93% | 85% | 4.19[a] |  |  |  |  | 95% | 97% |  |  |  | 
9 | CC1c2cccc(NC(=O)c3c(C(F)F)nn(C)c3F)c2CC1(C)C (centres unmarked) [Example 78] | 100% | 98% | 95% | 88% | 3.92[a] |  |  |  |  | 100% |  | 75% |  |  | 
10 | CC(C)C1Cc2cccc(NC(=O)c3c(C(F)F)nn(C)c3Cl)c2C1C (centres unmarked) [Example 48] | 100% | 100% |  | 80% | 4.49[a] |  |  |  |  | 100% |  |  |  |  | 
11 | CCC1Cc2c(NC(=O)c3c(C(F)F)nn(C)c3Cl)cccc2C1(C)C (centres unmarked) [Example 90] | 100% | 100% | 90% | 79% | 4.61[a] |  |  |  |  | 100% | 75% |  |  |  | 
12 | Cn1nc(C(F)F)c(C(=O)Nc2cccc3c2CCC3C(C)(C)C)c1F (centres unmarked) [Example 97] | 100% | 98% |  | 79% | 4.39[a] |  |  |  |  | 89% | 83% |  |  |  | 
13 | Cn1nc(C(F)F)c(C(=O)Nc2cccc3c2CC(C)(C)C3)c1Cl [Example 73] | 100% | 100% | 83% | 71% | 3.21[a] |  |  |  |  | 100% |  |  |  |  | 
14 | CC1c2cccc(NC(=O)c3c(C(F)F)nn(C)c3Cl)c2CC12CCCC2 (centres unmarked) [Example 33, 5-chloro-3-(difluoromethyl)-1-methyl-N-(1′-methyl-1′,3′-dihydrospiro[cyclopentane-1,2′-inden]-4′-yl)-1H-pyrazole-4-carboxamide] | 100% | 93% | 86% | 90% |  |  |  |  |  | 95% |  |  | 4.63 |  | 
15 | CC1c2cccc(NC(=O)c3c(C(F)F)nn(C)c3F)c2CC12CCCC2 (centres unmarked) [Example 32] | 100% | 100% | 93% | 90% | 4.39[a] |  |  |  |  | 98% | 97% |  |  |  | 
16 | CCC1(CC)Cc2c(NC(=O)c3c(C(F)F)nn(C)c3Cl)cccc2C1C (centres unmarked) [Example 93] | 100% | 98% |  | 75% | 4.92[a] |  |  |  |  | 98% |  |  |  |  | 
17 | Cn1nc(C(F)F)c(C(=O)Nc2cccc3c2CCC32CC2)c1F [Example 11] | 100% | 98% | 92% |  | 3.33[a] |  |  |  |  |  | 80% | 98% |  |  | 
18 | Cc1ccc(NC(=O)c2c(C(F)F)nn(C)c2F)c2c1C(C)(C)CC2C (centres unmarked) [Example 19] | 77% | 94% | 75% |  | 3.99[a]; |  |  |  |  |  | 97% | 98% |  | 3.92[b] | 
19 | CC1CC(CC(C)(C)C)c2cccc(NC(=O)c3c(C(F)F)nn(C)c3Cl)c21 (centres unmarked) [Example 69] | 100% | 98% |  | 71% | 5.22[a] |  |  |  |  | 100% |  |  |  |  | 
20 | CC1CC2(CC2)c2cccc(NC(=O)c3c(C(F)F)nn(C)c3F)c21 (centres unmarked) [Example 50] | 100% | 98% | 93% |  | 3.55[a] |  |  |  |  | 98% | 80% | 100% |  |  | 
21 | CC1CC(CC(C)(C)C)c2cccc(NC(=O)c3c(C(F)F)nn(C)c3F)c21 (centres unmarked) [Example 70] | 100% | 98% | 89% | 79% | 4.92[a] |  |  |  |  | 100% |  |  |  |  | 
22 | CC1CC(C)(C)c2c(C3CC3)ccc(NC(=O)c3c(C(F)F)nn(C)c3F)c21 (centres unmarked) [Example 17] | 97% | 94% |  |  | 4.35[a]; |  |  |  |  |  | 97% | 98% |  | 4.28[b] | 
23 | CC1CC2(CCCC2)c2cccc(NC(=O)c3c(C(F)F)nn(C)c3F)c21 (centres unmarked) [Example 103] |  |  |  |  | 4.39[a] | 100% | 98% |  | 100% |  |  |  |  |  | 80%
24 | CC(C)CC1CC(C)c2c(NC(=O)c3c(C(F)F)nn(C)c3F)cccc21 (centres unmarked) [Example 80] | 100% | 98% | 97% | 86% | 4.71[a] |  |  |  |  | 98% | 97% |  |  |  | 
25 | CCC1(CC)Cc2c(NC(=O)c3c(C(F)F)nn(C)c3F)cccc2C1C (centres unmarked) [Example 101] | 100% | 98% | 100% | 88% | 4.67[a] |  |  |  |  | 100% |  |  |  |  | 
